Results reported in US4528290A, “Stimulating dopamine D-1 receptors” (Eli Lilly and Company, priority 1984, dated 1985).

Test system: dopamine D-1 receptors (cyclic AMP efflux, striatal tissue)
Assay: tissue or blood
Experimental: A second, particularly sensitive indicator of D-1 agonist activity is the determination of the cyclic AMP efflux in tissue slices using a procedure based on Stoof and Kebabian (loc. cit). In this procedure, striatal tissue is dissected from rat brains and chopped into 0.3 mm.×[…]. fragments. The tissue fragments are suspended in the appropriate buffer system (Earl's balanced salt solution, for example) and the suspension is continuously aerated with 95:5 O2 /CO2 while being maintained at 37° C. Just prior to use, the tissue fragments are transferred to fresh media to which is added bovine serum albumin (2.5 mg./ml.) and 3-isobutyl-1-methylxanthine (1 millimolar) to block degradation of cyclic AMP. The tissue fragments are incubated in buffer without drugs and are then transferred to the same media with added drug. Aliquots of incubation media, with and without drugs, are assayed for cyclic AMP concentration by a specific radioimmunoassay. The effect of the drug or drugs on efflux is expressed as a percentage of the resting efflux. The following medium was employed:
Sulpiride is known to be an antagonist on pituitary D-2 receptors. Addition of sulpiride to a test system, such as that described above, blocks any D-2 effect of a drug in reducing cyclic AMP production.

## CCCN1CCC[C@@H]2Cc3[nH]ncc3C[C@H]21 [4aR, 8aR enantiomer, 4aR,8aR-5-n-propyl-4,4a,5,6,7,8,8a,9-octahydro-1H(and 2H)-pyrazolo[4,3-g]-quinoline]
Compound at 0.5×10^-6 M added to SKF38393 10^-6 molar (145% alone)
  cyclic AMP production increase by SKF38393 after addition of the compound: 42%

## Oc1cc2c(cc1O)C(c1ccccc1)CNCC2 (stereo not shown) [SKF38393, 1,2,3,4-tetrahydro-7,8-dihydroxy-1-phenyl-1H-3-benzazepine]
Rattus norvegicus, read-out: increase of cyclic AMP production
  activation at 1 µM: 145%

## CCN1CCCC1CNC(=O)c1cc(S(N)(=O)=O)ccc1OC (stereo not shown) [sulpiride]
Sulpiride 10^-6 M
  effect of sulpiride on the lowering of the SKF38393 cyclic AMP increase by the trans-(-)-enantiomer: suppressed
Sulpiride 10^-6 M with A 5 × 10^-7 M
  effect of sulpiride on the increase in cyclic AMP efflux caused by A: no effect on the increase in cyclic AMP efflux
